Measured values as given in patent US20250051376A1, “BENZIMIDAZOLE DERIVATIVE COMPOUNDS AND USE THEREOF” (PHARMGEN SCIENCE, INC., priority 2021, published 2025).

Legend:
gastric acid secretion [1] = test: Gastric acid releasing suppression ability test by oral administration (pylorus-ligated, histamine-stimulated rats); format: in vivo
Method: A week before the test, test animals (rats) were purchased and acclimatized. After acclimatization, food was removed the day before the test and fasting was performed for 24 hours using a fasting plate. The weight of each individual was measured, weight ranking was sequentially assigned to each group, and the average value of each group was randomly distributed so that the average value was evenly distributed. Test material (the embodiment compound and comparison compound) were used by dissolving them in 0.5% methylcellulose solution, and tegoprazan was used as a comparative compound. The prepared test material was orally administered to test animals at an amount of 3 mg/5 ml/kg, and 30 minutes later, inhalation anesthesia (3% isoflurane) was performed for 3 minutes using an inhalation anesthesia machine. After making a minimal incision in the upper abdomen about 1 cm below the left side of the sternum of an anesthetized test animal, the stomach was exposed, and the pyloric ring, which is the connection between the stomach and the duodenum, was ligated. The stomach and duodenum were restored to their original positions, and the laparotomy site was sutured well with surgical staplers. Histamine (7.5 mg/2.5 mL/head) was slowly administered subcutaneously to the back of the neck to promote gastric acid secretion. 3 hours after the surgery, the experimental animals were anesthetized with isoflurane and the stomach was removed through laparotomy. Gastric fluid obtained from the extracted stomach was transferred to a 15 ml conical tube, centrifuged at 5,000 rpm for 10 minutes, and only the supernatant was separated. 0.2 mL of the separated gastric fluid was diluted in 24.8 mL of distilled water to make a total dilution of 25 mL, and then 0.01N NaOH was added in small amounts to titrate until the pH reached 7. Efficacy was evaluated by calculating total acidity by combining the amount of gastric fluid and the amount of 0.01N NaOH required for titration.

gastric acid secretion [2] = test: Gastric acid releasing suppression ability test by administration in the duodenum (pylorus-ligated, histamine-stimulated rats); format: in vivo; settings: for gastric acid releasing suppression ability (% INH, Mean ± SD): intraduodenal 1 mg/5 ml/kg in 0.5% methylcellulose, pylorus ligation, histamine s.c., gastric fluid collected 3 hours after surgery
Method: A week before the test, test animals (rats) were purchased and acclimatized. After acclimatization, food was removed the day before the test and fasting was performed for 24 hours using a fasting plate. The weight of each individual was measured, weight ranking was sequentially assigned to each group, and the average value of each group was randomly distributed so that the average value was evenly distributed. Test material (the embodiment compound and comparison compound) were used by dissolving them in 0.5% methylcellulose solution, and tegoprazan was used as a comparative compound. Experimental animals were subjected to inhalation anesthesia (3% isoflurane) for 3 minutes using an inhalation anesthesia machine. After making a minimal incision in the upper abdomen about 1 cm below the left side of the sternum of an anesthetized test animal, the stomach was exposed, and the pyloric ring, which is the connection between the stomach and the duodenum, was ligated. The prepared drug was administered into the duodenum in an amount of 1 mg/5 ml/kg, the stomach and duodenum were restored to their original positions, and the laparotomy site was sutured well with a surgical stapler. Histamine (7.5 mg/2.5 mL/head) was slowly administered subcutaneously to the back of the neck to promote gastric acid secretion. 3 hours after the surgery, the experimental animals were anesthetized with isoflurane and the stomach was removed through laparotomy. Gastric fluid obtained from the extracted stomach was transferred to a 15 ml conical tube, centrifuged at 5,000 rpm for 10 minutes, and only the supernatant was separated. 0.2 mL of the separated gastric fluid was diluted in 24.8 mL of distilled water to make a total dilution of 25 mL, and then 0.01N NaOH was added in small amounts to titrate until the pH reached 7. Efficacy was evaluated by calculating total acidity by combining the amount of gastric fluid and the amount of 0.01N NaOH required for titration.

physchem = settings: pH 6.8, aqueous buffer, thermodynamic from solid
[3] = rats, oral 3 mg/5 ml/kg in 0.5% methylcellulose, pylorus ligation 30 min after dosing, histamine s.c., gastric fluid collected 3 hours after surgery

Row | Molecule | gastric acid releasing suppression ability (% INH, Mean ± SD) (gastric acid secretion [1]; [3]) [% INH] | gastric acid releasing suppression ability (% INH, Mean ± SD) (gastric acid secretion [2]) [% INH] | improved water solubility (pH 6.8) compared to the comparative compound [times] | solubility at 31 min (physchem) [µg/mL] | gastric acid releasing suppression ability in the gastric acid secretion animal model (in words) (gastric acid secretion [1]; rats, oral 3 mg/5 ml/kg) | gastric acid releasing suppression ability (% INH, Mean ± SD) (gastric acid secretion [1]; rat, in vivo) [% INH] | gastric acid releasing suppression ability in the gastric acid secretion animal model (in words) (gastric acid secretion [1]; rat, in vivo, po) | ability to inhibit gastric acid secretion compared to the comparative compound (in words) (gastric acid secretion [2]; drug administered to the duodenum with a neutral pH, 1 mg/5 ml/kg)
1 | Cc1nc2cc(C(=O)N(C)C)cc(O[C@H]3CCOc4cc(F)cc(F)c43)c2[nH]1 [Comparison compound, tegoprazan, reference compound] | 100 ± 0.0 | 29.8 ± 9.1 | – | – | – | – | – | –
2 | Cc1nc2c(O[C@H]3CCOc4cc(F)cc(F)c43)cc(C(=O)N(C)C)cc2n1COP(=O)(OC(C)(C)C)OC(C)(C)C [Embodiment 2, (S)-di-tert-butyl ((4-((5,7-difluorochroman-4-yl)oxy)-6-(dimethylcarbamoyl)-2-methyl-1H-benzo[d]imidazol-1-yl)methyl) phosphate] | 26.8 ± 9.2 | – | 256 | 5120 | – | – | – | –
3 | Cc1nc2c(O[C@H]3CCOc4cc(F)cc(F)c43)cc(C(=O)N(C)C)cc2n1COP(=O)(O)OC(C)(C)C [Embodiment 3, tert-butyl ((4-(((S)-5,7-difluorochroman-4-yl)oxy)-6-(dimethylcarbamoyl)-2-methyl-1H-benzo (d)imidazol-1-yl)methyl) hydrogen phosphate] | 23.9 ± 3.3 | – | 128 | 2560 | – | – | – | –
4 | Cc1nc2c(O[C@H]3CCOc4cc(F)cc(F)c43)cc(C(=O)N(C)C)cc2n1COP(=O)(O)O [Embodiment 4, (S)-(4-((5,7-difluorochroman-4-yl)oxy)-6-(dimethylcarbamoyl)-2-methyl-1H-benzo[d]imidazol-1-yl)methyl dihydrogen phosphate] | 100.0 ± 0.0 | – | 128 | 2560 | powerful gastric acid releasing suppression ability | – | – | –
5 | sodium(S)-(4-((5,7-difluorochroman-4-yl)oxy)-6-(dimethylcarbamoyl)-2-methyl-1H-benzo (d) imidazol-1-yl)methyl phosphate) [Embodiment 6] | – | 43.7 ± 8.7 | – | – | – | 92.8 ± 4.8 | powerful gastric acid releasing suppression ability | improved ability to inhibit gastric acid secretion compared to the comparative compound
6 | sodium(S)-tert-butyl ((4-((5,7-difluorochroman-4-yl)oxy)-6-(dimethylcarbamoyl)-2-methyl-1H-benzo (d) imidazol-1-yl)methyl) phosphate) [Embodiment 5] | – | – | – | – | – | 12.7 ± 10.9 | – | –
